# Measurements: US12655127B2, “Fused ring compound as Wee-1 inhibitor” (WIGEN BIOMEDICINE TECHNOLOGY (SHANGHAI) CO., LTD., priority 2021, dated 2026)
# pIC50: −log10 of the molar value.
# Biological target: recombinant protein Wee-1 (Homo sapiens, UniProt P30291)
# Assay: Inhibition of enzymatic activity of recombinant protein Wee-1 (HTRF)
# Type: biochemical
# Description: The inhibitory effect of the compounds on the enzyme activity of recombinant protein Wee-1 was determined by HTRF. The procedures are as follows:
# After DMSO or serially diluted compounds (up to 200 nM, 1:5 serially diluted) and recombinant proteins were co-incubated in a kinase buffer at 37° C. for 30 min Fluorescein-PolyGAT and ATP were added, and then the reaction was started by the addition of a substrate. After incubation at room temperature for 90 min, an antibody and a detection solution were added, and after further incubation at room temperature for 60 min, fluorescence values were detected (excitation wavelength: 340 nm, emission wavelengths: 495 and 520 nm). The 520 nm/495 nm fluorescence intensity ratio value was calculated, and compared with that of the DMSO group, and then the inhibition percentages and IC50 values of the compounds were calculated.
# Chain of recombinant protein Wee-1 (P30291 whole entry): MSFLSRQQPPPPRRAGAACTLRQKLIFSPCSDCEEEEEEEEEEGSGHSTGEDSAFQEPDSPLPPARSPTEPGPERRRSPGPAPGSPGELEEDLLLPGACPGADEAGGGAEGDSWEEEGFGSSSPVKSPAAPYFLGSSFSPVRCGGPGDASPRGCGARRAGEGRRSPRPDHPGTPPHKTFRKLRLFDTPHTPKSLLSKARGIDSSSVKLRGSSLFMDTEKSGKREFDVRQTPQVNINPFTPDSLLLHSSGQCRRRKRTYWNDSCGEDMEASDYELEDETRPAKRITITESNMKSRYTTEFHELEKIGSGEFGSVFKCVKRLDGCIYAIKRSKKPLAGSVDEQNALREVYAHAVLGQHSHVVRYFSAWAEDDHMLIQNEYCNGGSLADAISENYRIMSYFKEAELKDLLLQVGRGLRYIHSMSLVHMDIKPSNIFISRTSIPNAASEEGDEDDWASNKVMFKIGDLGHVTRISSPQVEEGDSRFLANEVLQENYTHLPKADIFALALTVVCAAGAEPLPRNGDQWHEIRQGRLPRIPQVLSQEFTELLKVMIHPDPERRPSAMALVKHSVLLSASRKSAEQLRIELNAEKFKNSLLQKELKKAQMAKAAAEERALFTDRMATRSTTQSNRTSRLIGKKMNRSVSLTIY
row,pIC50,Compound
1,≥ 8.00,CN1Cc2cc(Nc3ncc(C#N)c(Nc4cccc(N=S(C)(C)=O)n4)n3)cc3c2C(CO3)C1 (centres unmarked) [Compound 70]
2,≥ 8.00,CN1Cc2cc(Nc3ncc(C#N)c(Nc4cccc(N=S(C)(C)=O)c4)n3)cc3c2C(CCC3)C1 (centres unmarked) [Compound 101]
3,≥ 8.00,CN1Cc2cc(Nc3ncc(C4CC4)c(Nc4cccc(N=S(C)(C)=O)n4)n3)cc3c2C(CCC3)C1 (centres unmarked) [Compound 95]
4,≥ 8.00,CN1Cc2cc(Nc3ncc(C#N)c(Nc4cccc(N=S(C)(C)=O)n4)n3)cc3c2C(CCCCO3)C1 (centres unmarked) [Compound 82]
5,≥ 8.00,CN1Cc2cc(Nc3ncc(C#N)c(Nc4cccc(N=S(C)(C)=O)n4)n3)cc3c2C(C1)SC3 (centres unmarked) [Compound 73]
6,≥ 8.00,CN1Cc2cc(Nc3ncc(C#N)c(Nc4nccc(N=S(C)(C)=O)n4)n3)cc3c2C(CCC3)C1 (centres unmarked) [Compound 107]
7,7.30 to 8.00,CN1Cc2cc(Nc3ncc(C#N)c(Nc4cccc(N=S(C)(C)=O)n4)n3)cc3c2[C@@](C)(CC3)C1 [Compound 55]
8,≥ 8.00,CN1Cc2cc(Nc3ncc(C#N)c(-n4cnc5c(N=S(C)(C)=O)cccc54)n3)cc3c2C(CCC3)C1 (centres unmarked) [Compound 117]
9,≥ 8.00,CN1Cc2cc(Nc3ncc(C#N)c(Nc4cc(F)cc(N=S(C)(C)=O)n4)n3)cc3c2C(CCC3)C1 (centres unmarked) [Compound 111]
10,≥ 8.00,[2H]C([2H])([2H])N1Cc2cc(Nc3ncc(C#N)c(Nc4cccc(N=S(C)(C)=O)n4)n3)cc3c2C(CCC3)C1 (centres unmarked) [Compound 134]
11,≥ 8.00,[2H]C1([2H])c2cc(Nc3ncc(C#N)c(Nc4cccc(N=S(C)(C)=O)n4)n3)cc3c2C(CCC3)CN1C (centres unmarked) [Compound 280]
12,≥ 8.00,CN1Cc2cc(Nc3ncc(C#N)c(Nc4cccc(N=S(C)(C)=O)n4)n3)c(F)c3c2C(CCC3)C1 (centres unmarked) [Compound 48]
13,≥ 8.00,C=Cc1cc(N=S(C)(C)=O)nc(Nc2nc(Nc3cc4c5c(c3)CN(C)CC5CCC4)ncc2C#N)c1 (centres unmarked) [Compound 122]
14,≥ 8.00,CN1Cc2cc(Nc3ncc(C#N)c(Nc4cccc(N=S(C)(C)=O)n4)n3)cc3c2C(C1)CC(F)(F)C3 (centres unmarked) [Compound 28]
15,≥ 8.00,CN1Cc2cc(Nc3ncc(C#N)c(Nc4cccc(N=S(C)(C)=O)n4)n3)cc3c2C(C1)C1CC1C3 (centres unmarked) [Compound 38]
16,≥ 8.00,CN1Cc2cc(Nc3ncc(C#N)c(Nc4cccc(N=S(C)(C)=O)n4)n3)cc3c2C(CS3)C1 (centres unmarked) [Compound 71]
17,≥ 8.00,CN1Cc2c(F)c(Nc3ncc(C#N)c(Nc4cccc(N=S(C)(C)=O)n4)n3)cc3c2C(CCC3)C1 (centres unmarked) [Compound 43]
18,≥ 8.00,CN1Cc2cc(Nc3ncc(C#N)c(Nc4cccc(N=S(C)(C)=O)n4)n3)cc3c2C(C1)OCC3 (centres unmarked) [Compound 68]
19,≥ 8.00,CN1Cc2cc(Nc3ncc(C#N)c(Nc4cccc(N=S(C)(C)=O)n4)n3)cc3c2C(CCC3)C1(C)C (centres unmarked) [Compound 133]
20,≥ 8.00,CN1Cc2cc(Nc3ncc(C#N)c(Nc4cccc(N=S(C)(C)=O)n4)n3)cc3c2C(CC(N)C3)C1 (centres unmarked) [Compound 292]
21,≥ 8.00,CN1Cc2cc(Nc3ncc(C#N)c(Nc4cccc(N=S(C)(C)=O)n4)n3)cc3c2C(CNC3)C1 (centres unmarked) [Compound 127]
22,≥ 8.00,CN1Cc2cc(Nc3ncc(C#N)c(Nc4cccc(N=S(C)(C)=O)n4)n3)cc3c2[C@@H](CCCC3)C1 [Compound 58]
23,≥ 8.00,CN1Cc2cc(Nc3ncc(C#N)c(Nc4cccc(N=S(C)(C)=O)n4)n3)cc3c2C(CCC=C3)C1 (centres unmarked) [Compound 86]
24,≥ 8.00,CN1C[C@H]2CCCc3cc(Nc4ncc(C#N)c(Nc5cccc(N=S(C)(C)=O)n5)n4)cc(c32)C1(C)C [Compound 21]
25,≥ 8.00,CN1Cc2cc(Nc3ncc(C#N)c(Nc4cccc(N=S(C)(C)=O)n4)n3)cc3c2C(CC=C3)C1 (centres unmarked) [Compound 35]

row,pIC50,Compound
1,≥ 8.00,CC(C)N1Cc2cc(Nc3ncc(C#N)c(Nc4cccc(N=S(C)(C)=O)n4)n3)cc3c2[C@H](CCC3)C1 [Compound 11]
2,≥ 8.00,CN1Cc2cc(Nc3ncc(C#N)c(Nc4cccc(N=S(C)(C)=O)n4)n3)cc3c2C(C1)SCCC3 (centres unmarked) [Compound 81]
3,≥ 8.00,CN1Cc2cc(Nc3ncc(C#N)c(Nc4cccc(N=S(C)(C)=O)n4)n3)cc3c2C1CCCC3 (centres unmarked) [Compound 88]
4,≥ 8.00,CN1Cc2cc(Nc3ncc(C#N)c(Nc4cccc(N=S(C)(C)=O)n4)n3)cc3c2[C@H](CCC3)C1(C)C [Compound 24]
5,≥ 8.00,CN1Cc2cc(Nc3ncc(C#N)c(Nc4cccc(N=S(C)(C)=O)n4)n3)cc3c2C(CCC3(C)C)C1 (centres unmarked) [Compound 33]
6,≥ 8.00,CN1Cc2cc(Nc3ncc(C#N)c(-n4ccc5c(N=S(C)(C)=O)cccc54)n3)cc3c2C(CCC3)C1 (centres unmarked) [Compound 113]
7,7.30 to 8.00,CN1Cc2cc(Nc3ncc(C#N)c(Nc4cccc(N=S(C)(C)=O)n4)n3)cc3c2[C@H](CC3)C1 [Compound 51]
8,≥ 8.00,CC(C)N1Cc2cc(Nc3ncc(C#N)c(Nc4cccc(N=S(C)(C)=O)n4)n3)cc3c2C(CCC3)C1 (centres unmarked) [Compound 10]
9,≥ 8.00,CN1Cc2cc(Nc3ncc(C#N)c(Nc4cccc(N=S(C)(C)=O)n4)n3)cc3c2C(C=CC3)C1 (centres unmarked) [Compound 36]
10,≥ 8.00,CS(C)(=O)=Nc1cccc(Nc2nc(Nc3cc4c5c(c3)CN(CC3CC3)CC5CCC4)ncc2C#N)n1 (centres unmarked) [Compound 18]
11,≥ 8.00,CN1Cc2cc(Nc3ncc(C#N)c(Nc4cccc(N=S(C)(C)=O)n4)n3)cc3c2C(CCCS3)C1 (centres unmarked) [Compound 75]
12,≥ 8.00,CN1Cc2cc(Nc3ncc(C#N)c(Nc4cccc(N=S(C)(C)=O)n4)n3)cc3c2C(C1)OCCC3 (centres unmarked) [Compound 80]
13,≥ 8.00,CN1Cc2cc(Nc3ncc(P(C)(C)=O)c(Nc4cccc(N=S(C)(C)=O)n4)n3)cc3c2C(CCC3)C1 (centres unmarked) [Compound 96]
14,≥ 8.00,CN1Cc2cc(Nc3ncc(C#N)c(Nc4cccc(N=S(C)(C)=O)n4)n3)cc3c2C(CC2CC32)C1 (centres unmarked) [Compound 37]
15,≥ 8.00,CN1Cc2cc(Nc3ncc(C#N)c(Nc4cccc(N=S(C)(C)=O)n4)n3)cc3c2C(C1)CC1(CC1)C3 (centres unmarked) [Compound 26]
16,≥ 8.00,CN1Cc2cc(Nc3ncc(C#N)c(Nc4cccc(N=S(C)(C)=O)n4)n3)cc3c2C(CCCCC3)C1 (centres unmarked) [Compound 62]
17,≥ 8.00,CN1Cc2cc(Nc3ncc(C#N)c(Nc4cccc(N=S(C)(C)=O)n4)n3)cc3c2C(C1)CC(C)(C)C3 (centres unmarked) [Compound 27]
18,≥ 8.00,CN1Cc2cc(Nc3ncc(S(C)(=O)=O)c(Nc4cccc(N=S(C)(C)=O)n4)n3)cc3c2C(CCC3)C1 (centres unmarked) [Compound 97]
19,≥ 8.00,CN1Cc2cc(Nc3ncc(C#N)c(Nc4cccc(N=S(C)(C)=O)n4)n3)cc3c2C(C=CCC3)C1 (centres unmarked) [Compound 84]
20,≥ 8.00,CN1Cc2cc(Nc3ncc(C#N)c(Nc4cccc(N=S(C)(C)=O)n4)n3)cc3c2C(CCN3C)C1 (centres unmarked) [Compound 131]
21,≥ 8.00,CN1Cc2cc(Nc3ncc(C#N)c(Nc4cccc(N=S(C)(C)=O)n4)n3)cc3c2C(CCC3(F)F)C1 (centres unmarked) [Compound 34]
22,7.30 to 8.00,CN1Cc2cc(Nc3ncc(C#N)c(Nc4cccc(N=S(C)(C)=O)n4)n3)cc3c2[C@@H](CC3)C1 [Compound 52]
23,≥ 8.00,"CN1Cc2cc(Nc3ncc(C#N)c(Nc4cccc(P(C)(C)=O)n4)n3)cc3c2[C@H](CCC3)C1 (single isomer, unassigned) [Compound 138]"
24,≥ 8.00,CN1Cc2cc(Nc3ncc(-c4ccoc4)c(Nc4cccc(N=S(C)(C)=O)n4)n3)cc3c2C(CCC3)C1 (centres unmarked) [Compound 99]
25,≥ 8.00,CN1Cc2cc(Nc3ncc(C#N)c(Nc4cccc(N=S(C)(C)=O)n4)n3)nc3c2C(CCC3)C1 (centres unmarked) [Compound 45]
